We go through 7 compounds from US5175290A, “8-(oxo-substituted cycloalkyl)xanthines” (Marion Merrell Dow Inc., priority 1988, dated 1992).

Molecules are shown by their SMILES. Read-outs that look alike come from different tables or passages of the source.

The test system of data set [1] is histamine-induced bronchoconstriction. Briefly: Reversal of histamine-induced bronchoconstriction in the anesthetized guinea pig. The class given is in vivo. As to conditions: guinea pigs; for ED50: Cavia porcellus, iv, dose required to reverse the histamine response by 50%; for maximum effect (maximum percent reversal of histamine-induced bronchoconstriction): i.v. How it is done:
Reversal of histamine-induced bronchoconstriction in the anesthetized guinea pig
A modification of the general method of H. Konzett and R. Rossler [Naunyn-Schmiedeberg's Arch. Pharmakol.
Male Duncan-Hartley guinea pigs (400-600) were anesthetized using an intratraperitoneal injection of urethane (1.5 g/kg). After the neck area was shaved, the animal was placed in the dorsal recumbent position on a Narco temperature controlled surgical board (37° C.) to maintain body temperature. Following a midline neck incision, the carotid artery and jugular vein were cannulated using PE50 polyethylene tubing. Both catheters were flushed with heparinized saline (20 U/mL) to prevent clotting. The trachea was then cannulated using a 15 gauge Leuer stub and was connected to a Harvard Apparatus small animal respirator. The animal was ventilated at a constant rate and volume (52 breaths/minute and 1 mL room air/[…] body weight). Airway pressure was measured using a Statham pressure transducer connected to the side port of the tracheal cannula. The arterial blood pressure was measured using a Statham pressure transducer connected to the carotid artery. Both transducers were connected to a Gould chart recorder to produce the desired physiographs.
After allowing the animal to stabilize for 10 minutes, aerosolized histamine (0.01%) was delivered to the airways using a DeVilbiss ultrasonic nebulizer connected in-line between the respirator and the guinea pig. After the maximum bronchoconstriction was reached, as evidenced by a maximum plateau in airway pressure, an injection of vehicle (0.6 mL) was administered via the jugular vein. […] At the end of the experiment, terbutaline sulfate (1 mg/mL), a beta agonist, was injected i.v. to determine if further bronchodilation could be achieved The nebulizer was then turned off and the minimum airway pressure was recorded to determine the final baseline pressure.
ED50 (mg/kg) values and maximum effect (%) were calculated using SAS and PROBIT computer analyses. […] The maximum effect is the maximum percent reversal of histamine-induced bronchoconstriction produced by the test compound.

Data set [2] has as its system pentobarbital-induced heart failure. The data set is described as follows: Pentobarbital-induced heart failure in rats. The class given is in vivo, rat (Sprague-Dawley). As to conditions: for ED40: Rattus norvegicus, iv; for heart rate, maximum recovery dose: bracketed value under RD40 heart rate.
Experimental: Adult male Sprague-Dawley rats (350-450 g) were used in this example. Animals were anesthetized using sodium pentobarbital (40-50 mg/kg, i.p.) and placed supine on a heated (37° C.) surgical table. A 7F pressure tipped catheter (Millar) was inserted into the left carotid artery and advanced into the left ventricle of the heart to measure left ventricular pressure (LVP), dP/dt and heart rate (HR). Mean arterial blood pressure (MABP) was monitored via a PE-50 catheter placed into a femoral artery. The right jugular vein and a femoral vein were catheterized with PE-10 tubing for infusion of the test compounds and pentobarbital, respectively.
Following bilateral cervical vagotomy, a 15 gauge blunt needle was inserted into the trachea via a midcervical tracheostomy to ventilate the animals (60/minute, TV=2.3 mL) Each animal was allowed a 5-10 minute period to stabilize and control measurements were recorded. A dose of 60-70 mg/kg of pentobarbital wa then administered slowly over a 5 minute period via the femoral vein until MABP was stabilized at 60 mm Hg, at which time an infusion of 0.2 mg/kg/minute of pentobarbital was begun and continued throughout the experiment. Each animal was then allowed 10-15 minutes to stabilize and values representing heart failure were recorded. Control and test compounds were tested in a cumulative-dose manner using at least four doses. Dose-related effects, e.g., dP/dt and MABP were continually monitored during a 15 minute recovery period between each dose. At the time of the peak dP/dt response during each recovery period, values for all four variables were recorded. The animals were sacrificed using a lethal injection of pentobarbital 15 minutes following the last dose of the test compound. Only one compound was administered to each animal.
The RD40 is defined as the dose of compound required to achieve a 40% recovery in the variable (dP/dt, MABP) being measured. It was calculated for each compound using an SAS® probit analysis on a Vax computer. Briefly, the program transforms the dose into log 10 and calculates the line of least squares using the mean value for recovery at each dose. In most instances the RD40 was then extrapolated, but in those instances where a full dose-response curve was not achieved because of the limited solubility of the compound, the RD40 was estimated.
The test system of data set [3] is basal heart rate and basal blood pressure. Briefly: Cardiovascular effects (basal heart rate and basal blood pressure) in guinea pigs. The class given is in vivo, guinea pig. As to conditions: i.v., at 2 × histamine-reversal ED50, * = not significant. As to the method:
Cardiovascular effects (basal heart rate and basal blood pressure) in guinea pigs
Male guinea pigs were anesthetized with urethane and the carotid artery and jugular vein were cannulated. Aortic blood pressure was recorded from a pressure transducer and the signal was integrated to give a heart rate signal.
Each animal received a single intravenous injection of one compound. The dose of each compound was based upon the ED50 value from the reversal of histamine-induced bronchoconstriction in the anesthetized guinea pig. Thus the various compounds were studied at equipotent bronchodilator doses (2×ED50). A group of control animals received injections of vehicle only. Changes in heart rate and blood pressure from pre-injection baseline values produced by drugs or vehicle were compared.

Data set [4] relates to A1 and A2 adenosine receptors. The following applies: A1 versus A2; cited from earlier work.
The conditions of data set [5]: cited from earlier work.
For data set [6] the following is noted: bronchial asthma; cited from earlier work.
The subject of a further data set is responses to adenosine. The following applies: all tissues studied, except rat hippocampus; cited from earlier work.
The mark [7] stands for this setting: rats, i.v., dose for 40% recovery in dP/dt, extrapolated or estimated by probit, read-out: RD40, dP/dt.
[8] abbreviates: rats, i.v., extrapolated or estimated by probit, read-out: RD40, heart rate.

For `CCCn1c(=O)c2[nH]c([C@H]3CC[C@H](O)C3)nc2n(CCC)c1=O` (relative stereo) [trans, trans-8-(3-hydroxycyclopentyl)-1,3-dipropylxanthine], in data set [1], the ED50 (in general, the midpoint of the dose-response relation) stood at 11.6 ± 1.6 mg/kg and the “maximum effect (maximum percent reversal of histamine-induced bronchoconstriction)” value stood at 78.5 ± 4.0%. Also, the ED40 in data set [2] (setting [7]) is 7.8 mg/kg. In addition, the ED40 in data set [2] (setting [8]) was 3.1 mg/kg. Moreover, in data set [2] (rats, i.v.), the “dP/dt, maximum recovery” value is recorded as 71% and the “heart rate, maximum recovery dose” value is 120 mg/kg. Also, in data set [3], the Basal blood pressure was found to be 96 ± 8% and the Basal heart rate came out at 107 ± 5%.
In the case of `CCCn1c(=O)c2[nH]c(C3CCC(O)C3)nc2n(CCC)c1=O` (mixture of isomers) [cis/trans], in data set [1], the ED50 is 20.3 ± 4.6 mg/kg and the “maximum effect (maximum percent reversal of histamine-induced bronchoconstriction)” value is on record as 64.0 ± 4.8%. Besides, the ED40 in data set [2] (setting [7]) is 19 mg/kg. Moreover, the ED40 in data set [2] (setting [8]) is 20 mg/kg. Also, in data set [2] (rats, i.v.), the “dP/dt, maximum recovery” value came out at 30% and the “heart rate, maximum recovery dose” value came to 30 mg/kg. In data set [3], the Basal blood pressure stood at 65 ± 3% and the Basal heart rate is given as 86 ± 4%.
Consider `Cn1c(=O)c2[nH]cnc2n(C)c1=O` [Theophylline], for which, in data set [1], the ED50 came to 35.1 ± 5.3 mg/kg and the “maximum effect (maximum percent reversal of histamine-induced bronchoconstriction)” value is 72.8 ± 6.6%. In data set [2] (read-out: RD40, dP/dt), the ED40 stood at 18 mg/kg. Also, in data set [2] (read-out: RD40, heart rate), the ED40 came out at 94 mg/kg. Further, in data set [2] (rats, i.v.), the “dP/dt, maximum recovery” value was determined as 50% and the “heart rate, maximum recovery dose” value is 50 mg/kg. Moreover, in data set [3], the Basal blood pressure amounted to 66 ± 8% and the Basal heart rate amounted to 132 ± 4%. Also, in data set [4], the “effectiveness in displacing ligands from both the A1 and A2 adenosine receptors” value is “about equally effective”. In data set [5] (in vivo), the cardiac stimulation entry is reported as “sometimes powerful cardiac stimulation”, the perfusion of organs result is given as “increased perfusion of most organs” and the peripheral vascular resistance entry is given as “modest decreases in peripheral vascular resistance”. Besides, in data set [5] (therapeutic doses, effect short-lived in man), the heart rate result is listed as “modest increases in heart rate”. Also, in data set [6], the vital capacity result is “demonstrable increase in vital capacity”.
As to `CCCn1c(=O)c2[nH]c([C@H]3CC[C@@H](O)C3)nc2n(CCC)c1=O` (relative stereo) [cis, cis-8-(3-hydroxycyclopentyl)-1,3-dipropylxanthine], in data set [1], the ED50 came to 14.1 ± 3.6 mg/kg and the “maximum effect (maximum percent reversal of histamine-induced bronchoconstriction)” value was found to be 72.8 ± 6.8%. For the same compound, in data set [2] (setting [7]), the ED40 was 17.7 mg/kg. In addition, the ED40 in data set [2] (setting [8]) is 120 mg/kg. Besides, in data set [2] (rats, i.v.), the “dP/dt, maximum recovery” value turned out to be 53% and the “heart rate, maximum recovery dose” value was determined as 20 mg/kg. Further, in data set [3], the Basal blood pressure was 90 ± 5% and the Basal heart rate is reported as 106 ± 3%.
Turning to `CCCn1c(=O)[nH]c(=O)c2[nH]cnc21` [Enprofylline, 3-propylxanthine], in data set [1], the ED50 was determined as 13.1 ± 3.1 mg/kg and the “maximum effect (maximum percent reversal of histamine-induced bronchoconstriction)” value stood at 84.8 ± 3.6%. The ED40 in data set [2] (setting [7]) was 48 mg/kg. Moreover, the ED40 in data set [2] (setting [8]) is 93 mg/kg. Besides, in data set [2] (rats, i.v.), the “dP/dt, maximum recovery” value was determined as 30% and the “heart rate, maximum recovery dose” value is on record as 50 mg/kg. Moreover, in data set [3], the Basal blood pressure turned out to be 76 ± 10% and the Basal heart rate is reported as 120 ± 6%. Also, the “effectiveness in diminishing responses to adenosine” value with responses to adenosine is “much less effective than theophylline”.
For `Nc1cc(-c2ccncc2)c[nH]c1=O` [Amrinone], the ED40 in data set [2] (setting [7]) was 4.12 mg/kg; in data set [2] (setting [8]), 77 mg/kg. The “dP/dt, maximum recovery” value in data set [2] (rats, i.v.) amounted to 63%. For the same compound, the “heart rate, maximum recovery dose” value in data set [2] (rats, i.v.) worked out at 10 mg/kg.
On to `Cn1c(=O)c2c(ncn2C)n(C)c1=O` [caffeine], for which the “effectiveness in displacing ligands from both the A1 and A2 adenosine receptors” value in data set [4] is “about equally effective”.
